The test system of the experiment is 855422-203-R-J1-PDC complex spheroid growth. The experiment can be described thus: Anticancer human tumor 855422-203-R-J1-PDC patient-derived bladder carcinoma cell line growth inhibition [AhR]. As to conditions: for viability, T/C: stronger effect = lower value; for IC50: curve of compound. An excerpt:
Multicellular complex tumor spheroid response to aryl hydrocarbon receptor antagonists in combination with a variety of drugs and investigational agents in selected tumor cell lines
The current study was undertaken to assess response to aryl hydrocarbon receptor antagonists in combination with standard-of-care drugs and investigational agents in solid tumor complex spheroid models. Complex spheroids include a stromal component modeled by human endothelial cells (HUVEC) and fibroblasts modeled by human mesenchymal stem cells (MSCs). The concentration ranges selected for each drug and investigational agent were based upon clinically achievable concentrations if the clinical Cmax of the agent was known.
Compounds. The drugs and investigational agents: BAY 2416964 (NSC825713), GNF351 (NSC835774), CH-223191 (NSC835775), CPI-455 (NSC825282), aza-TdCyd (NSC777586), decitabine (NSC127716), belinostat (NSC758774), entinostat (NSC756642), pevonedistat (NSC761192), tazemetostat (NSC777109), talazoparib (NSC765396), olaparib (NSC753686), selinexor (NSC780203), nedisertib (M3814, NSC802822), bortezomib (NSC756655), venetoclax (NSC766270), doxorubicin (NSC123127), elimusertib (BAY189344, NSC800525), ceralasertib (AZD6738, NSC777638), TAK-243 (NSC785004), alisertib (NSC759677), etoposide (NSC141540), topotecan (NSC609699), eribulin (NSC707389), gemcitabine (NSC613327), carboplatin (NSC241240), cisplatin (NSC119875), and SN-38 (NSC673596) were obtained from the National Cancer Institute (NCI) Developmental Therapeutics Program Chemical Repository (32). The FDA-approved anticancer drug set is available from the Developmental Therapeutics Program at https://dtp.cancer.gov/organization/dscb/obtaining/available plates.htm. […] The stock solutions were prepared in dimethyl sulfoxide (DMSO, Sigma-Aldrich, St. Louis, MO, cat. D2650), except for the platinum compounds which were prepared in saline (Quality Biological, Gaithersburg, MD, cat. 114-055-101), at 800-fold the tested concentration and stored at -70 degrees C prior to their use. All drugs and investigational agents were tested over a range starting from a high concentration at or near the clinical Cmax and decreasing in half-log increments. If the clinical Cmax for an agent had not been determined, the highest concentration tested was 10 microM (Table 1).
Cell Culture. All cells were maintained in an incubator at 37 degrees C and 5% CO2 with 95% humidity. The PDC lines were cultured according to standard operating procedures established by the NCI PDMR (https://pdmr.cancer.gov). Briefly, all PDCs were thawed and cultured in Matrigel-coated flasks prepared with a working solution of 1X Ham's F-12 nutrient mix, without supplementation (Invitrogen, Waltham, MA, cat. 11765054), 100 U/mL penicillin-streptomycin (Invitrogen, cat. 15140122), and 2.5% Matrigel (Corning Inc., Corning, NY, cat. 354248) for the first three passages. All PDCs were cultured in complete DMEM/F-12 media containing advanced DMEM/F-12 (Invitrogen, cat. 12634028), 4.9% defined fetal bovine serum, heat inactivated (HyClone Laboratories Inc., Logan, UT, cat. SH30070.03HI), 389 ng/mL hydrocortisone (Sigma-Aldrich, cat. H4001), 9.7 ng/mL human EGF recombinant protein (Invitrogen, cat. PHG0313), 23.4 microg/mL adenine (Sigma-Aldrich, cat. A2786), 97.3 U/mL penicillin-streptomycin (Invitrogen, cat. 15140122), 1.9 mM L-glutamine (Invitrogen, cat. 25030081), and 9.7 microM Y-27632 dihydrochloride (Tocris Bioscience, Bristol, United Kingdom, cat. 1254). The PDCs were cultured in complete DMEM/F12 media without 10 microM Y-27632 dihydrochloride for at least two passages prior to the screen. The established cell lines NCI-H1341 and […] were cultured in DMEM/F-12, HEPES (Invitrogen, cat. 11330032), 5% defined fetal bovine serum (HyClone Laboratories Inc., cat. SH30070.03), ITS premix universal culture supplement [insulin (5 microg/mL), transferrin (5 microg/mL), and selenious acid (5 ng/mL)] […]

“And” between values parts separate entries of the source, which are not always exact repeats. Equal values may be shown once.
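Note: spheroids exposed to agents for seven days before readout.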
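Throughout, for viability, T/C: percent of DMSO vehicle control luminescence viability.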

For the compound `Cn1ncnc1C1c2n[nH]c(=O)c3cc(F)cc(c23)NC1c1ccc(F)cc1` (stereo not drawn), the 50% inhibitory concentration (IC50) is more than 0.1 µM. Besides, for the setting “compound 0.000316 µM”, the viability, T/C is 98.3% and 105% and 99%. Moreover, under “compound 0.001 µM”, the viability, T/C was 92.9% and 104% and 110%. Also, under “compound 0.00316 µM”, the viability, T/C was 86.6% and 106% and 105%. Moreover, where the note is “compound 0.01 µM”, the viability, T/C is 104% and 98.8% and 103%. In addition, the viability, T/C (compound 0.0316 µM) is 99.4% and 102% and 95.6%. Where the note is “compound 0.1 µM”, the viability, T/C was 82.4% and 101% and 98.5%.

For the compound `NS(=O)(=O)OCC1CC(n2ccc3c(NC4CCc5ccccc54)ncnc32)CC1O` (stereo not drawn), the half-maximal inhibitory concentration (IC50) was 2.34 µM and 3.42 µM and 1.64 µM. Besides, for the setting “compound 0.0316 µM”, the viability, T/C is 99.2% and 99.8% and 104%. Besides, the viability, T/C (compound 0.1 µM) was 113% and 118% and 105%. Further, the viability, T/C (compound 0.316 µM) was 114% and 130% and 106%. Further, the viability, T/C (compound 1 µM) is 91.4% and 97.8% and 66.8%. Further, under “compound 3.16 µM”, the viability, T/C is 35.2% and 53.6% and 26.8%. In addition, for the setting “compound 10 µM”, the viability, T/C was 9.55% and 14.4% and 8.49%.

As for `Nc1ccccc1NC(=O)c1ccc(CNC(=O)OCc2cccnc2)cc1`, the half-maximal inhibitory concentration (IC50) was 2.8 µM and 6.39 µM and 4.69 µM. The viability, T/C (compound 0.0316 µM) was 86.3% and 105% and 90.3%. The viability, T/C (compound 0.1 µM) was 87.8% and 108% and 86.7%. Under “compound 0.316 µM”, the viability, T/C is 82.7% and 108% and 84.8%. Besides, the viability, T/C (compound 1 µM) was 82.7% and 109% and 97.4%. The viability, T/C (compound 3.16 µM) was 46.1% and 85.7% and 68.4%. Also, where the note is “compound 10 µM”, the viability, T/C was 5.42% and 27.3% and 14.9%.

In the case of `Nc1ccn(C2OC(CO)C(O)C2(F)F)c(=O)n1` (stereo not drawn), the concentration for half-maximal inhibition (IC50) is 0.055 µM and 0.212 µM and 0.29 µM. Also, under “compound 0.0316 µM”, the viability, T/C was 73.2% and 108% and 116%. The viability, T/C (compound 0.1 µM) is 24.6% and 89.1% and 98.4%. Also, the viability, T/C (compound 0.316 µM) was 14.1% and 28.8% and 44%. Besides, the viability, T/C (compound 1 µM) is 15.1% and 17.2% and 34.1%. Where the note is “compound 3.16 µM”, the viability, T/C was 11.1% and 14.4% and 27.2%. For the same compound, where the note is “compound 10 µM”, the viability, T/C was 7.1% and 9.36% and 17.2%.

Regarding `Nc1ncn(C2CC(O)C(CO)O2)c(=O)n1` (stereo not drawn), the 50% inhibitory concentration (IC50) was more than 1 µM. For the same compound, the viability, T/C (compound 0.00316 µM) was 94.3% and 107% and 95.8%. In addition, the viability, T/C (compound 0.01 µM) is 96.5% and 98.7% and 94.9%. Moreover, the viability, T/C (compound 0.0316 µM) is 91.6% and 97.8% and 87.2%. The viability, T/C (compound 0.1 µM) is 87.2% and 88.3% and 87.7%. For the same compound, under “compound 0.316 µM”, the viability, T/C was 86.9% and 90.8% and 79.8%. The viability, T/C (compound 1 µM) was 83.3% and 83.5% and 78.8%.

Regarding `Nc1ncn(C2CC(O)C(CO)S2)c(=O)n1` (stereo not drawn), the IC50 is more than 0.3 µM. For the same compound, the viability, T/C (compound 0.000949 µM) is 108% and 96.3% and 97.9%. Moreover, the viability, T/C (compound 0.003 µM) is 93.2% and 97.4% and 100%. Besides, the viability, T/C (compound 0.00949 µM) was 95.8% and 97.7% and 113%. The viability, T/C (compound 0.03 µM) was 82.9% and 103% and 95.7%. The viability, T/C (compound 0.0949 µM) is 86.4% and 98.1% and 91.1%. Moreover, under “compound 0.3 µM”, the viability, T/C is 81.6% and 99.8% and 82.1%.

As for `O=C(C=Cc1cccc(S(=O)(=O)Nc2ccccc2)c1)NO`, the half-maximal inhibitory concentration (IC50) is 1.77 µM and 3.95 µM and 1.95 µM. Moreover, under “compound 0.0316 µM”, the viability, T/C was 84% and 110% and 92.6%. Further, the viability, T/C (compound 0.1 µM) is 84.6% and 109% and 91.1%. For the same compound, the viability, T/C (compound 0.316 µM) is 88.4% and 108% and 90%. Besides, where the note is “compound 1 µM”, the viability, T/C is 69% and 106% and 70.5%. The viability, T/C (compound 3.16 µM) is 29.5% and 61% and 34.7%. In addition, for the setting “compound 10 µM”, the viability, T/C is 0.96% and 4.09% and 0.82%.

For the compound `O=C(C=Cn1cnc(-c2cc(C(F)(F)F)cc(C(F)(F)F)c2)n1)NNc1cnccn1`, the IC50 is 0.267 µM and 0.917 µM and 0.327 µM. In addition, the viability, T/C (compound 0.00949 µM) is 110% and 118% and 112%. The viability, T/C (compound 0.03 µM) is 105% and 125% and 130%. For the same compound, the viability, T/C (compound 0.0949 µM) was 164% and 169% and 162%. For the setting “compound 0.3 µM”, the viability, T/C was 41.3% and 95.5% and 51.4%. In addition, where the note is “compound 0.949 µM”, the viability, T/C was 29.9% and 55.1% and 35%. For the same compound, for the setting “compound 3 µM”, the viability, T/C was 20.7% and 42.1% and 27.6%.

With `O=C(c1cc(Cc2n[nH]c(=O)c3ccccc23)ccc1F)N1CCN(C(=O)C2CC2)CC1`, the IC50 is more than 10 µM. Under “compound 0.0316 µM”, the viability, T/C was 99% and 105% and 111%. Further, the viability, T/C (compound 0.1 µM) was 112% and 105% and 129%. Also, where the note is “compound 0.316 µM”, the viability, T/C was 111% and 99% and 105%. In addition, for the setting “compound 1 µM”, the viability, T/C was 105% and 98.5% and 116%. Also, for the setting “compound 3.16 µM”, the viability, T/C was 114% and 103% and 106%. Under “compound 10 µM”, the viability, T/C was 87.1% and 93.6% and 102%.

For orientation: viability, T/C means the ratio of treated to control. For orientation: IC50 means the concentration that inhibits the measured activity by half.

The values are drawn from PubChem BioAssay AID1919005 (Molecular Pharmacology Branch, DTP, NCI, 2023).
